Here are results for one molecule from PMC5409245, “An albumin-based tumor-targeted oxaliplatin prodrug with distinctly improved anticancer activity in vivo” (Chemical Science, 2016).

Data set [1] relates to CT-26 tumors. Put plainly: Histological evaluation (H/E) of apoptotic and mitotic cell fractions in CT-26 tumors. Format: in vivo, BALB/c mice. Particulars: tumors of male mice, day 12, H/E stain, counting. The procedure:
In order to better understand the observed differences in the activity of our compound panel, in a second experiment male CT-26-bearing animals were sacrificed on day 12 (24 h after the last treatment) and paraffin-embedded tumors were evaluated by H/E stain. […] In addition, as depicted in Fig. 5, the tumors of mice treated with 12 were clearly smaller than the ones of the other treatment groups. […] Furthermore, the histological evaluation of tumor material was only possible for 3 animals because the fourth mouse already experienced a complete remission at time of section (which means that the best responding animal was not available for evaluation). […]
mice was performed only with the endpoint overall survival. For cisplatin and 8, the […]
was performed. […]
experimental group contained four animals). Tumor volumes were calculated as described in the experimental part. […]
Figure S5: Apoptosis and mitosis levels in tumors after the treatment with compound 8, 11 and 12 in comparison to cis- and oxaliplatin: CT-26 cells were injected subcutaneously into the right flank of male BALB/c mice. […] The fractions of apoptotic and mitotic cells were evaluated by counting (4 pictures per sample, at least 300 cells per picture were counted). […]
The statistical significance was calculated by One-Way Anova and is indicated with asterisks (* P < 0.05; ** P < 0.01; *** P < 0.001).

Data set [2] has as its system subcutaneous CT-26 tumors.
Description: Mice were treated twice a week (Monday and Thursday) i.v. with concentrations equimolar to 9 mg kg^–1 oxaliplatin (each experimental group contained four animals). […] The experiment was performed twice with two different endpoints: overall survival vs. tissue collection 12 days after the first treatment. […] Data are means ± SEM.
CT-26 cells (5x105 in serum-free medium) were injected subcutaneously into the right flank
of Balb/c mice (gender is indicated in the respective figure). Animals were treated with the
indicated oxaliplatin-releasing drugs at concentrations equimolar to 9 mg/kg oxaliplatin (i.v.;
12 was dissolved in 0.9% NaCl solution, 11 in 10% propylene glycol/0.9% NaCl, and
oxaliplatin in 5% glucose solution according to the clinical protocol) twice a week (Mondays
and Thursdays). In case of cisplatin-releasing prodrugs, a dose equimolar to 3 mg/kg cisplatin
was applied twice a week. For all experiments four animals per treatment group were used.
Animals were controlled for distress development every day and tumor size was assessed
regularly by caliper measurement. Tumor volume was calculated using the formula: (length ×
width2). The experiments with oxaliplatin, 11 and 12 in male mice were performed twice
with two different endpoints: 1) overall survival and 2) collection of organ and tumor
In the second experiments, tumors were
formalin-fixed and paraffin-embedded.
Results were analyzed and illustrated and statistical analyses performed (as indicated) with
GraphPad Prism (GraphPad Software version 5,San Diego, CA).
Setting [3] is: female BALB/c mice, 9 mg kg^–1 i.v. twice a week.

With `O=C1[O][Pt]2([NH][C@@H]3CCCC[C@H]3[NH]2)[O]C1=O` [oxaliplatin], in data set [1], the “apoptotic cell fraction in tumors” value was “highest”. In data set [2] (setting [3]), the adverse effects result was “very strong adverse effects” and the anticancer activity entry is “widely ineffective”. The same molecule returned an onset of activity in data set [2] (male BALB/c mice, i.v. twice a week, equimolar to 9 mg kg^–1 oxaliplatin) of 8 days.
